Measurements taken from patent US12065434B2, “Metabolites of GLP1R agonists” (Pfizer Inc., priority 2020, dated 2024).

Assays:
human hepatocytes = assay: In vitro metabolism of Compound 2 in human cryopreserved hepatocytes; format: in vitro ADME; parameters: key to Relative abundance of metabolite of Compound 2, Human: ND Not detected.; trace: Trace: observed by HPLC/MS measurements only.; + Minor as assessed by HPLC/UV measurements; ++ moderate as assessed by HPLC/UV measurements; +++ major as assessed by HPLC/UV measurements.; * m/z 593 and m/z 505 co-eluted in rabbit hepatocytes.; ** m/z 591 c and m/z 593 were merged in human hepatocytes and Hepatopack.; *** m/z 607 and m/z 751 b were merged in rabbit hepatocytes; conditions: for metabolite of Compound 2 observed in human hepatocyte incubations: 10 μM Compound 2, 7.5×10^5 cells/mL, 1 and 4 hrs composite; for Relative abundance of metabolite of Compound 2, Human: human cryopreserved hepatocytes, HPLC/UV/MS
Experimental: (§1) Male CD-1 mouse hepatocytes (lot YHL), male Wistar-Han rat hepatocytes (Celsius; product number: M000065; lot: SLA), female New Zealand rabbit hepatocytes (lot 1510147), male cryopreserved cynomolgus monkey hepatocytes (Celsius; product number: M00305; lot: DNB) and mixed-gender cryopreserved human hepatocytes (Bioreclamation; product number: S01988; lot: DCM) were obtained for the hepatocyte in-vitro assessments.
(§2) At time 0 hrs 550 μL aliquots were removed from incubations and quenched with 5 volumes of ACN containing 0.1% formic acid. At 1 and 4 hrs, 275 μL aliquots were removed and quenched as above; these were combined in the same tube to prepare a composite sample. For all hepatocyte experiments, samples were processed by centrifugation at 1900×g for 5 minutes, and then the supernatant was transferred to clean glass tubes and evaporated to dryness under a stream of N2 using a Turbovap at 37° C. Sample residues were reconstituted in mobile phase prior to analysis by HPLC/UV/MS^n.
(§3) Samples were analyzed by HPLC/UV/MS^n using a Thermo Orbitrap Elite mass spectrometer in conjunction with a Thermo Open Accela UHPLC system. A 3.0×150 mm, 2.5 μm Acquity CSH C18 HPLC column (Waters) was heated to 45° C. for separation of analytes. The mobile phase was a gradient of A): water containing 0.1% formic acid, and B): acetonitrile. The flow rate was 450 μL/min, and the following gradient program was utilized: […]
(§4) UV absorbance was monitored with a photo-diode array detector from 220-450 nm. The mass spectrometer was operated in positive-ion mode with a HESI ion source at a potential of 3.0 kV, and capillary and source heater temperatures of 380 and 300° C., respectively. Sheath, auxiliary, and sweep gas flows were set to 45, 10, and 2 units, respectively. Full scan mass spectra were acquired over the range 120-1200 m/z at a resolving power of 30,000 (specified at m/z 400). Data-dependent MS^n spectra were acquired in an automated fashion at 15,000 resolving power using CID and HCD fragmentation with normalized collision energy settings of 28 and 65 V, respectively.
(§5) Metabolites were characterized by comparisons of mass spectral fragmentation patterns with that of a Compound 2 standard. All HPLC/UV/MS^n data were processed using Xcalibur v. 2.2, and integrated UV peak areas were subjected to weighted UV binning procedures utilizing an Excel template.

mouse hepatocytes = assay: In vitro metabolism of Compound 2 in mouse cryopreserved hepatocytes; format: in vitro ADME; parameters: key to Relative abundance of metabolite of Compound 2, Mouse: ND Not detected.; trace: Trace: observed by HPLC/MS measurements only.; + Minor as assessed by HPLC/UV measurements; ++ moderate as assessed by HPLC/UV measurements; +++ major as assessed by HPLC/UV measurements.; * m/z 593 and m/z 505 co-eluted in rabbit hepatocytes.; ** m/z 591 c and m/z 593 were merged in human hepatocytes and Hepatopack.; *** m/z 607 and m/z 751 b were merged in rabbit hepatocytes; conditions: for metabolite of Compound 2 observed in mouse hepatocyte incubations: 10 μM Compound 2, 7.5×10^5 cells/mL, 1 and 4 hrs composite; for Relative abundance of metabolite of Compound 2, Mouse: mouse cryopreserved hepatocytes, HPLC/UV/MS
Experimental: as §1, §2, §3, §4, §5

rat hepatocytes = assay: In vitro metabolism of Compound 2 in rat cryopreserved hepatocytes; format: in vitro ADME; parameters: key to Relative abundance of metabolite of Compound 2, Rat: ND Not detected.; trace: Trace: observed by HPLC/MS measurements only.; + Minor as assessed by HPLC/UV measurements; ++ moderate as assessed by HPLC/UV measurements; +++ major as assessed by HPLC/UV measurements.; * m/z 593 and m/z 505 co-eluted in rabbit hepatocytes.; ** m/z 591 c and m/z 593 were merged in human hepatocytes and Hepatopack.; *** m/z 607 and m/z 751 b were merged in rabbit hepatocytes; conditions: for metabolite of Compound 2 observed in rat hepatocyte incubations: 10 μM Compound 2, 7.5×10^5 cells/mL, 1 and 4 hrs composite; for Relative abundance of metabolite of Compound 2, Rat: rat cryopreserved hepatocytes, HPLC/UV/MS
Experimental: as §1, §2, §3, §4, §5

monkey hepatocytes = assay: In vitro metabolism of Compound 2 in monkey cryopreserved hepatocytes; format: in vitro ADME, cynomolgus monkey; parameters: key to Relative abundance of metabolite of Compound 2, Monkey: ND Not detected.; trace: Trace: observed by HPLC/MS measurements only.; + Minor as assessed by HPLC/UV measurements; ++ moderate as assessed by HPLC/UV measurements; +++ major as assessed by HPLC/UV measurements.; * m/z 593 and m/z 505 co-eluted in rabbit hepatocytes.; ** m/z 591 c and m/z 593 were merged in human hepatocytes and Hepatopack.; *** m/z 607 and m/z 751 b were merged in rabbit hepatocytes; conditions: for metabolite of Compound 2 observed in monkey hepatocyte incubations: 10 μM Compound 2, 7.5×10^5 cells/mL, 1 and 4 hrs composite; for Relative abundance of metabolite of Compound 2, Monkey: monkey cryopreserved hepatocytes, HPLC/UV/MS
Experimental: as §1, §2, §3, §4, §5

rabbit hepatocytes = assay: In vitro metabolism of Compound 2 in rabbit cryopreserved hepatocytes; format: in vitro ADME; parameters: key to Relative abundance of metabolite of Compound 2, Rabbit: ND Not detected.; trace: Trace: observed by HPLC/MS measurements only.; + Minor as assessed by HPLC/UV measurements; ++ moderate as assessed by HPLC/UV measurements; +++ major as assessed by HPLC/UV measurements.; * m/z 593 and m/z 505 co-eluted in rabbit hepatocytes.; ** m/z 591 c and m/z 593 were merged in human hepatocytes and Hepatopack.; *** m/z 607 and m/z 751 b were merged in rabbit hepatocytes; conditions: for metabolite of Compound 2 observed in rabbit hepatocyte incubations: 10 μM Compound 2, 7.5×10^5 cells/mL, 1 and 4 hrs composite; for Relative abundance of metabolite of Compound 2, Rabbit: rabbit cryopreserved hepatocytes, HPLC/UV/MS
Experimental: as §1, §2, §3, §4, §5

[1] = test system: human co-cultured hepatocytes (Hepatopack); assay: In vitro metabolism of Compound 2 in human micropatterned co-cultured hepatocytes (Hepatopack); format: in vitro ADME; parameters: key to Relative abundance of metabolite of Compound 2, Hepatopack: ND Not detected.; trace: Trace: observed by HPLC/MS measurements only.; + Minor as assessed by HPLC/UV measurements; ++ moderate as assessed by HPLC/UV measurements; +++ major as assessed by HPLC/UV measurements.; * m/z 593 and m/z 505 co-eluted in rabbit hepatocytes.; ** m/z 591 c and m/z 593 were merged in human hepatocytes and Hepatopack.; *** m/z 607 and m/z 751 b were merged in rabbit hepatocytes; conditions: human co-cultured hepatocytes (Hepatopack); HPLC/UV/MS
Text: Micro-patterned co-cultured (MPCC) hepatocyte 24-well plates containing human donors (16 wells each) were provided by Ascendance Biotechnology (formerly Hepregen Corp. (Medford, MA). [see Wang W W W, Khetani S R, Krzyzewski S, et al. Assessment of a Micropatterned Hepatocyte Coculture System to Generate Major Human Excretory and Circulating Drug Metabolites. Drug Metab Dispos 2010; 38(10):1900-5.] The MPCCs were created at Ascendance Biotechnology and maintained in serum containing medium for 5-6 days to allow for stabilization of the co-cultures prior to shipment. A mixed-gender cryopreserved pool of 10 human donors (X008001-P; lot YFA) was used to seed the plates and was purchased from BioreclamationIVT (Westbury, NY). MPCC hepatocytes are plated with fibroblasts in a 1:3 ratio with ˜25,000 hepatocytes/well in a 24-well plate. 24-Well MPCC plates were shipped to Pfizer, fresh medium (400 μL/well) was applied and cultures were kept at 37° C. with […] and 95% relative humidity for two days. Micropatterned co-cultures containing pooled hepatocytes were allowed 7 days to fully stabilize with respect to liver-specific functions. […] At respective time points (0, 2, and 7 days), the culture medium was removed and mixed with 4 volumes of ACN, then stored frozen at −40° C. until samples could be analyzed. Samples were subsequently processed by the addition of 2.5 mL of 1:1 ACN:MeOH containing 0.1% formic acid. After vortexing, the samples were centrifuged at 1900×g for 5 min, then the supernatant was transferred to 15 mL conical tubes and evaporated under N2 using a Turbovap set at 37° C. The residues were reconstituted in mobile phase (5:95 v:v ACN:0.1% aqueous formic acid) prior to analysis by HPLC/UV/MS^n.
as §3
UV absorbance was monitored with a photo-diode array detector from 220-450 nm. The mass spectrometer was operated in positive-ion mode with a HESI ion source at a potential of 3.0 kV, and capillary and source heater temperatures of 380 and 300° C., respectively. Sheath, auxiliary, and sweep gas flows were set to 45, 10, and 2 units, respectively. Full scan mass spectra were acquired over the range 120-1200 m/z at a resolving power of 30,000 (specified at m/z 400). […]

human GLP-1R [2] = target: T1, human GLP-1R (Homo sapiens, UniProt P43220, L260F); assay: CHO GLP-1R Clone C6 - Assay 2 (HTRF cAMP agonist assay, low receptor density); format: cell-based; conditions: CHO GLP-1R Clone C6 (low receptor density); for Emax: arithmetic mean, relative to 1 μM GLP-1
T1 construct: expressed in transfected cells
T1 sequence (P43220 24-463 L260F): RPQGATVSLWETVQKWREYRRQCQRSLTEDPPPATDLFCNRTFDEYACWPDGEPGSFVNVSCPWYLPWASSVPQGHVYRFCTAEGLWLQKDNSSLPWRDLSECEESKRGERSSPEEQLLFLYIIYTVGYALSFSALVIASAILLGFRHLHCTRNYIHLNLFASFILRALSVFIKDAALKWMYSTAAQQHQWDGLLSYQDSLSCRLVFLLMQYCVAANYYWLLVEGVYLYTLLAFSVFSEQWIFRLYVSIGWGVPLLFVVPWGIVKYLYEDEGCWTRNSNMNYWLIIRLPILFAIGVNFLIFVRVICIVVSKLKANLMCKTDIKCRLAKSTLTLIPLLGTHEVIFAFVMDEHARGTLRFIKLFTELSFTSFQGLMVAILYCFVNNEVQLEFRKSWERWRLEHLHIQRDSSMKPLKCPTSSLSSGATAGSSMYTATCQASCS
Experimental: GLP-1R-mediated agonist activity was determined with a cell-based functional assay utilizing an HTRF (Homogeneous Time-Resolved Fluorescence) cAMP detection kit (cAMP HI Range Assay Kit; Cis Bio cat #62AM6PEJ) that measures cAMP levels in the cell. The method is a competitive immunoassay between native cAMP produced by the cells and exogenous cAMP labeled with the dye d2. The tracer binding is visualized by a mAb anti-cAMP labeled with Cryptate. The specific signal (i.e. energy transfer) is inversely proportional to the concentration of cAMP in either a standard or an experimental sample.
The human GLP-1R coding sequence (NCBI Reference Sequence NP_002053.3, including naturally-occurring variant Leu260Phe) was subcloned into pcDNA5-FRT-TO and a clonal CHO cell line stably expressing a low receptor density was isolated using the Flp-In™ T-Rex™ System, as described by the manufacturer (ThermoFisher).
Cells were removed from cryopreservation, re-suspended in 40 mL of Dulbecco's Phosphate Buffered Saline (DPBS—Lonza Cat #17-512Q) and centrifuged at 800×g for 5 minutes at 22° C. The DPBS was aspirated, and the cell pellet was re-suspended in 10 mL of complete growth medium (DMEM:F12 1:1 Mixture with HEPES, L-Gln, 500 mL (DMEM/F12 Lonza Cat #12-719F), 10% heat inactivated fetal bovine serum (Gibco Cat #16140-071), 5 mL of 100× Pen-Strep (Gibco Cat #15140-122), 5 mL of 100× L-Glutamine (Gibco Cat #25030-081), 700 μg/mL Hygromycin (Invitrogen Cat #10687010) and 15 μg/mL Blasticidin (Gibco Cat #R21001). A 1 mL sample of the cell suspension in growth media was counted on a Becton Dickinson ViCell to determine cell viability and cell count per mL. The remaining cell suspension was then adjusted with growth media to deliver 1600 viable cells per well using a Matrix Combi Multidrop reagent dispenser, and the cells were dispensed into a white 384 well tissue culture treated assay plate (Corning 3570). The assay plate was then incubated for 48 hours at 37° C. in a humidified environment (95% O2, 5% CO2)
Varying concentrations of each compound to be tested (in DMSO) were diluted in assay buffer [HBSS with Calcium/Magnesium (Lonza/BioWhittaker cat #10-527F)/0.1% BSA (Sigma Aldrich cat #A7409-1L)/20 mM HEPES (Lonza/BioWhittaker cat #17-737E)] containing 100 μM 3-isobutyl-1-methylxanthin (IBMX; Sigma cat #15879). The final DMSO concentration in the compound/assay buffer mixture is 1%.
After 48 hours, the growth media was removed from the assay plate wells, and the cells were treated with 20 μL of the serially diluted compound in assay buffer for 30 minutes at 37° C. in a humidified environment (95% O2, 5% CO2). Following the 30 minute incubation, 10 μL of labeled d2 cAMP and 10 μL of anti-cAMP antibody (both diluted 1:20 in cell lysis buffer; as described in the manufacturer's assay protocol) were added to each well of the assay plate. The plates were then incubated at room temperature and after 60 minutes, changes in the HTRF signal were read with an Envision 2104 multi-label plate reader using excitation of 330 nm and emissions of 615 and 665 nm. Raw data were converted to nM cAMP by interpolation from a cAMP standard curve (as described in the manufacturer's assay protocol) and the percent effect was determined relative to a saturating concentration of the full agonist GLP-1 (1 μM) included on each plate. EC50 determinations were made from agonist dose response curves analyzed with a curve fitting program using a 4-parameter logistic dose response equation.

[3] = Metabolite profiling of pooled human plasma after repeat oral dosing of Compound 1 (HPLC/UV/MS)
Experimental: Plasma samples from nine human subjects following oral administration of 120 mg BID for 28 days in a clinical study were examined for metabolites.
Individual subject's plasma (from nine human subjects with 120 mg BID dose Day 28) were pooled in proportion to the time period represented by each to yield a pool for profiling that was representative of the AUC (0-12 hr) according to the method of Hamilton et al. [Hamilton R A, Garnett W R, Kline B J. Determination of a mean valproic acid serum level by assay of a single pooled sample. […] Pooled plasma time points were first prepared by aliquoting equal amounts (1.0 mL) of plasma from each subject prior to making a single Hamilton pool. Blank plasma pools were made by taking equal aliquots of predose samples. To a 2 mL aliquot of each pooled plasma sample was added 6 mL of acetonitrile and then mixed. Protein precipitated samples were centrifuged for 5 minutes at 2000×g and the supernatants were transferred to other clean 15 mL centrifuge tubes. Samples were dried using an evaporative centrifuge set to 37° C. Samples were reconstituted using 0.2 mL of 5:95 acetonitrile:water and analyzed by HPLC/UV/MS.
Reconstituted samples were analyzed by positive ion HPLC/UV/MS using a Thermo Orbitrap Elite mass spectrometer operating in positive ion electrospray mode. Xcalibur software version 3.0.63 was used to control the HPLC/UV/MS system. Full scan data were collected at 15,000 resolution. Data dependent product ion scans of the two most intense ions found in the full scan were obtained at 15,000 resolution. The dynamic exclusion function was used with a 10 second exclusion duration after 3 successive product ion scans with an early exclusion if the precursor ion fell below a signal to noise ratio of 20. The HPLC system consisted of an Accela quaternary solvent delivery pump, an Accela autoinjector, an Accela PDA Plus photodiode array detector (Thermo Electron Corporation). Chromatography was performed on a Phenomenex Kinetex column (2.1 mm×100 mm, 2.6 μm) at 45° C. using a HotSleeve column heater (Analytical Sales and Services). The mobile phase was composed of 0.1% formic acid in water (solvent A) and acetonitrile (solvent B). The solvent delivery gradient program was as follows:

human GLP-1R [4] = target: human GLP-1R (Homo sapiens, UniProt P43220); assay: CHO GLP-1R Clone H6 - Assay 1 (HTRF cAMP agonist assay)
human GLP-1R (Homo sapiens, UniProt P43220), sequence (P43220 24-463 G168S): as the sequence (P43220 24-463 L260F) above, with G145S, F237L counted along it
Experimental: (§8) GLP-1R-mediated agonist activity was determined with a cell-based functional assay utilizing an HTRF (Homogeneous Time-Resolved Fluorescence) cAMP detection kit (cAMP HI Range Assay Kit; CisBio cat #62AM6PEJ) that measures cAMP levels in the cell. The method is a competitive immunoassay between native cAMP produced by the cells and exogenous cAMP labeled with the dye d2. The tracer binding is visualized by a mAb anti-cAMP labeled with Cryptate. The specific signal (i.e. energy transfer) is inversely proportional to the concentration of cAMP in either standard or experimental sample.
(§9) The human GLP-1R coding sequence (NCBI Reference Sequence NP_002053.3, including naturally-occurring variant Gly168Ser) was subcloned into pcDNA3 (Invitrogen) and a cell line stably expressing the receptor was isolated (designated Clone H6).
(§10) Cells were removed from cryopreservation, re-suspended in 40 mL of Dulbecco's Phosphate Buffered Saline (DPBS—Lonza Cat #17-512Q) and centrifuged at 800×g for 5 minutes at 22° C. The cell pellet was then re-suspended in 10 mL of growth medium [DMEM/F12 1:1 Mixture with HEPES, L-Gln, 500 mL (DMEM/F12 Lonza Cat #12-719F), 10% heat inactivated fetal bovine serum (Gibco Cat #16140-071), 5 mL of 100× Pen-Strep (Gibco Cat #15140-122), 5 mL of 100× L-Glutamine (Gibco Cat #25030-081) and 500 μg/mL Geneticin (G418) (Invitrogen #10131035)]. A 1 mL sample of the cell suspension in growth media was counted on a Becton Dickinson ViCell to determine cell viability and cell count per mL. The remaining cell suspension was then adjusted with growth media to deliver 2000 viable cells per well using a Matrix Combi Multidrop reagent dispenser, and the cells were dispensed into a white 384 well tissue culture treated assay plate (Corning 3570). The assay plate was then incubated for 48 hours at 37° C. in a humidified environment in 5% carbon dioxide.
(§11) Varying concentrations of each compound to be tested (in DMSO) were diluted in assay buffer (HBSS with Calcium/Magnesium (Lonza/BioWhittaker cat #10-527F)/0.1% BSA (Sigma Aldrich cat #A7409-1L)/20 mM HEPES (Lonza/BioWhittaker cat #17-737E) containing 100 μM 3-isobutyl-1-methylxanthin (IBMX; Sigma cat #15879). The final DMSO concentration is 1%.
(§12) After 48 hours, the growth media was removed from the assay plate wells, and the cells were treated with 20 μL of the serially diluted compound in assay buffer for 30 minutes at 37° C. in a humidified environment in 5% carbon dioxide. Following the 30 minute incubation, 10 μL of labeled d2 cAMP and 10 μL of anti-cAMP antibody (both diluted 1:20 in cell lysis buffer; as described in the manufacturer's assay protocol) were added to each well of the assay plate. The plates were then incubated at room temperature and after 60 minutes, changes in the HTRF signal were read with an Envision 2104 multi-label plate reader using excitation of 330 nm and emissions of 615 and 665 nm. Raw data were converted to nM cAMP by interpolation from a cAMP standard curve (as described in the manufacturer's assay protocol) and the percent effect was determined relative to a saturating concentration of the full agonist GLP-17-36 (1 μM) included on each plate. EC50 determinations were made from agonist dose-response curves analyzed with a curve fitting program using a 4-parameter logistic dose response equation.

human GLP-1R [5] = target: human GLP-1R (Homo sapiens, UniProt P43220, G168S); assay: as above; conditions: read-out: Assay 1 Emax (%)
human GLP-1R (Homo sapiens, UniProt P43220, G168S), sequence (P43220 24-463 G168S): as the sequence (P43220 24-463 L260F) above, with G145S, F237L counted along it
Experimental: as §8, §9, §10, §11, §12

[6] = Circulating metabolites of Compound 2 in rat plasma following a 1.0 mg/kg IV bolus dose; format: in vivo; conditions: 1.0 mg/kg IV bolus dose of Compound 2, pooled 0.033-24 hrs
Experimental: (§6) Plasma and bile samples were obtained from a bile duct cannulated rat experiment (Study PK-0111) in which a 1.0 mg/kg IV bolus dose was administered to fed male rats (N=3). No control plasma was available from this experiment.
Clin Pharmacol Ther 1981; 29(3):408-13]. The entire volume of each replicate Hamilton pool was combined to create a single pooled sample (576 μL) for analysis.
(§7) Pooled plasma and bile samples were extracted with ACN containing 0.1% formic acid, and after centrifugation at 1900×g, the supernatant was transferred to clean tubes and evaporated under N2 in a Turbovap set at 37° C. Residues were reconstituted in mobile phase (5:95 v:v ACN:0.1% aqueous formic acid) prior to analysis by HPLC/UV/MS^n.
as §3, §4, §5

[7] = Metabolites of Compound 2 in rat bile following a 1.0 mg/kg IV bolus dose; format: in vivo; conditions: 1.0 mg/kg IV bolus dose of Compound 2, bile duct cannulated rats, pooled 0-24 hrs
Experimental: as §6
Bile samples (0-3, 3-7, and 7-24 hrs) from individual animals were pooled in proportion to the amount collect in each interval. Then 0.5 mL of each individual pool was combined to prepare a composite sample for analysis.
as §7, §3, §4, §5

| Structure (SMILES) | metabolite of Compound 2 observed in human hepatocyte incubations (human hepatocytes) | Relative abundance of metabolite of Compound 2, Human (human hepatocytes) | metabolite of Compound 2 observed in mouse hepatocyte incubations (mouse hepatocytes) | Relative abundance of metabolite of Compound 2, Mouse (mouse hepatocytes) | metabolite of Compound 2 observed in rat hepatocyte incubations (rat hepatocytes) | Relative abundance of metabolite of Compound 2, Rat (rat hepatocytes) | metabolite of Compound 2 observed in monkey hepatocyte incubations (monkey hepatocytes) | Relative abundance of metabolite of Compound 2, Monkey (monkey hepatocytes) | metabolite of Compound 2 observed in rabbit hepatocyte incubations (rabbit hepatocytes) | Relative abundance of metabolite of Compound 2, Rabbit (rabbit hepatocytes) | Relative abundance of metabolite of Compound 2, Hepatopack [1] | Emax (human GLP-1R [2]) [%] | EC50 (human GLP-1R [2]; geometric mean) [µM] | observed as major or minor metabolite in human plasma ([3]; Compound 1 120 mg BID, Day 28) | Plasma Extracts ([3]; Compound 1 120 mg oral BID, Day 28, HPLC/UV/MS) | EC50 (human GLP-1R [4]) [µM] | Emax (human GLP-1R [5]) [%] | detected in rat plasma [6] | detected in rat bile [7] |
| --- | --- | --- | --- | --- | --- | --- | --- | --- | --- | --- | --- | --- | --- | --- | --- | --- | --- | --- | --- |
| C[C@]1(c2ccc(Cl)cn2)Oc2cccc(C3CCN(Cc4nc5ccc(C(=O)O)cc5n4CC(O)CCO)CC3)c2O1 (stereo in doubt) [Metabolite 593] | observed in all hepatocyte incubations | ** | observed in all hepatocyte incubations | + | observed in all hepatocyte incubations | trace | observed in all hepatocyte incubations | + | observed in all hepatocyte incubations | +++ | ** | – | – | – | – | – | – | – | – |
| C[C@]1(c2ccc(Cl)cn2)Oc2cccc(-c3cc[n+](Cc4nc5ccc(C(=O)O)cc5n4C[C@@H]4CCO4)cc3)c2O1 [Metabolite 569] | observed in all hepatocyte incubations | + | observed in all hepatocyte incubations | + | observed in all hepatocyte incubations | trace | observed in all hepatocyte incubations | trace | observed in all hepatocyte incubations | + | + | – | – | – | – | – | – | – | – |
| O=C(O)c1ccc2nc(CN3CCC(c4cccc(=O)[nH]4)CC3)n(C[C@@H]3CCO3)c2c1 [Compound M2, (S)-2-((4-(6-hydroxypyridin-2-yl)piperidin-1-yl)methyl)-1-(oxetan-2-ylmethyl)-1H-benzo[d]imidazole-6-carboxylic acid] | – | – | – | – | – | – | – | – | – | – | – | 0 | > 20 | major circulating metabolite | +++ | > 20 | 2 | – | – |
| C[C@]1(c2ccc(Cl)cn2)Oc2cccc(C3CCN(Cc4nc5ccc(C(=O)O)cc5n4C[C@@H]4CCO4)CC3)c2O1 [Compound 2, 2-((4-((S)-2-(5-chloropyridin-2-yl)-2-methylbenzo[d][1,3]dioxol-4-yl)piperidin-1-yl)methyl)-1-(((S)-oxetan-2-yl)methyl)-1H-benzo[d]imidazole-6-carboxylic acid] | – | – | – | – | – | – | – | – | – | – | – | 96 | – | – | – | – | 99 | detected | detected |
